Test results reported in US20050208597A1, “Microarray analysis of post-translational modifications” (The Board of Trustees of the Leland Stanford Junior …, priority 2004, published 2005).

Legend:
Format in all cases: cell-based
[1] = test system: MEK1/2 phosphorylation; experiment: RPP microarray, phospho-specific antibody probing of cell lysates
Protocol: (§1) FIG. 2. Applications of reverse-phase protein microarrays. (A) Kinetics of PLCγ1 (Y783) phosphorylation in Jurkat T cells following stimulation with anti-CD3 (pink triangle), anti-CD28 (green circle), both antibodies (blue squares), or isotype control antibodies (empty squares) over 30 minutes. Left panel: Phosphorylation kinetics unadjusted for total PLCγ1 levels. Middle Panel: Total PLCγ1 levels. Right panel: Ratiometric data on phosphorylation kinetics (phospho-PLCγ1/total PLCγ1). See text for details. (B) Phosphorylation kinetics of four signaling proteins (PLCγ1, Akt, MEK1/2, and p44/42 MAPK) in wildtype Jurkat T cells (black square) and J.gamma1, a mutant Jurkat line deficient in PLCγ1 (empty circle), stimulated with both anti-CD3 and CD28 antibodies. […] Jurkats T cells were stimulated with either anti-CD3 or anti-CD28 antibodies in the presence of one of three kinase inhibitors (see text for details). Lysates were collected after 10 minutes of stimulation, spotted on slides, and probed with four phospho-specific antibodies. Representative spots of p-p44/42 MAPK and p-MEK1/2 are shown for anti-CD3 stimulated cells and p-Akt (Ser473) and p-PDK1 for anti-CD28 treated cells.
(§2) To fabricate the protein microarrays, we used a contact-printing robotic microarrayer to deliver nanoliter (˜6 nl) volumes of whole cell lysates onto nitrocellulose-coated slides. FAST slides (Schleicher and Schuell BioSciences, Dassel, Germany). Depending on the experimental setup, two different formats of FAST slides were used. In experiments where the number of samples was greater than the number of analytes measured, slides with a single pad capable of holding over 2000 lysate spots were used. In our screening experiments where the number of analytes exceeds the number of samples, we used slides carrying eight sectored pads or subarrays for multiplex analysis. Under our current configuration, a maximum of 24 spots can be fitted onto each individual pad (6 mm×6 mm).
(§3) For small-scale experiments, we used a precision 8-pin manual microarrayer system (Microcaster system from Schleicher & Schuell). […] The protein lysates dried within seconds of printing and were tightly bound to the nitrocellulose platform via electrostatic interactions.

[2] = test system: PDK1 phosphorylation; experiment: as above; conditions: Jurkat cells stimulated through CD28 in the presence of the inhibitor; lysates after 10 minutes; one of the 'other 3 kinases' (named)
Protocol: as §1, §2, §3

[3] = test system: p44/42 MAPK phosphorylation; experiment: as above
Protocol: as §1, §2, §3

[4] = test system: Akt (Ser473) phosphorylation; experiment: as above
Protocol: as §1, §2, §3

[5] = test system: β-actin; experiment: RPP microarray, phosphorylation-state independent antibody; conditions: PMA treated vs untreated Jurkat T cells
Description: (§4) FIG. 1. Protein microarray performance characteristics and validation. (A) Four purified antigens spotted in triplicate over six 2-fold dilutions starting at 900 pg per spot and probed with their corresponding antibodies. (B) Quantitative comparison between Western immunoblotting and protein microarray for measuring Hsp70 induction in heat-shocked Jurkat T cells. (C) Detection of changes in phosphorylation in signaling proteins in PMA treated vs. untreated Jurkat T cells. Corresponding immunoblots of the same samples are shown on the right. Antibodies specific for p44/42 MAPK, MEK1/2 and Akt are phosphorylation-state dependent. Antibodies for SLP-76 and β-actin are not dependent on phosphorylation.
(§5) To fabricate the protein microarrays, we used a contact-printing robotic microarrayer to deliver nanoliter (˜6 nl) volumes of whole cell lysates onto nitrocellulose-coated slides. […] In experiments where the number of samples was greater than the number of analytes measured, slides with a single pad capable of holding over 2000 lysate spots were used. […]
(§6) For small-scale experiments, we used a precision 8-pin manual microarrayer system (Microcaster system from Schleicher & Schuell). The resulting features measured approximately 500 μm in diameter. […] Bound primary antibodies were detected with a horseradish peroxidase (HRP)-linked secondary antibody. […]

[6] = test system: SLP-76; experiment: as above; conditions: PMA treated vs untreated Jurkat T cells
Description: as §4, §5, §6

[7] = Jurkat cells stimulated through CD3 in the presence of the inhibitor, lysates after 10 minutes
[8] = PMA treated vs untreated Jurkat T cells

Row | SMILES | phosphorylation of MEK1/2 [1, 7] | phosphorylation of PDK1 [2] | phosphorylation of p44/42 MAPK [3, 7] | phosphorylation of Akt (Ser473) ([4]; Jurkat cells stimulated through CD28 in the presence of the inhibitor, lysates after 10 minutes) | abundance of β-actin [5] | abundance of SLP-76 [6] | phosphorylation of MEK1/2 [1, 8] | phosphorylation of p44/42 MAPK [3, 8] | phosphorylation of Akt/PKB [4, 8]
1 | N#CC(=C(/N)Sc1ccccc1N)/C(C#N)=C(\N)Sc1ccccc1N [U0126] | had no effect | had no effect | specifically blocked | had no effect | – | – | – | – | –
2 | CCCCCCCCCCCCCC(=O)O[C@@H]1[C@@H](C)[C@@]2(O)[C@@H](C=C(CO)C[C@]3(O)C(=O)C(C)=C[C@@H]23)[C@@H]2C(C)(C)[C@]12OC(C)=O [PMA, phorbol 12-myristate 13-acetate] | – | – | – | – | no changes | no changes | rapid phosphorylation | rapid phosphorylation | not significantly affected
